From patent EP0326066A2, “Condensed diazepinones, process for their preparation and medicaments containing them” (Dr. Karl Thomae GmbH, priority 1988, dated 1989)

Key:
[1] = target: muscarinischen Rezeptoren (Großhirnrinde); assay: Receptor binding test, ³H-NMS displacement, cerebral cortex homogenate; design: species or system Sprague-Dawley-Ratten; conditions: rat cerebral cortex homogenate; 0,3 n molar ³H-NMS; 30°C, 45 min; read-out: Rezeptor-Bindungs-Tests IC₅₀ Cortex
Description: (§1) Das Gesamtherz wurde […] Organe wurden abschließend in einem Potter homogenisiert. […] Die Inkubation der Organhomogenate erfolgte bei einer bestimmten Konzentration des Radioliganden und […] Testsubstanzen im Eppendorf-Zentrifugenröhrchen bei 30°C. Die Inkubationsdauer betrug 45 Minuten. Als Radioligand wurde 0,3 n molar 3H-N-Methylscopolamin (3H-NMS) verwendet. Die Inkubation wurde durch Zugabe von […] Puffer mit nachfolgender Vakuumfiltration beendet. Die Filter […] Puffer gespült und […] Summe von spezifischer und unspezifischer Bindung von 3H-NMS. Der Anteil der unspezifischen Bindung wurde definiert als jene Radioaktivität, die in Anwesenheit von 1 μ molar Quinuclidinylbenzilat gebunden wurde. […]. Die IC50-Werte der nicht-markierten Testsubstanzen […] jene Konzentration der Testsubstanz, bei welcher die spezifische Bindung von 3H-NMS an die muscarinischen Rezeptoren in den verschiedenen Organen um 50 % gehemmt wurde. Die Ergebnisse sind aus der Tabelle 1 zu […].

[2] = system: Blase; assay: Inhibition of the acetylcholine effect on bladder of the guinea pig; type: in vivo, Meerschweinchen; conditions: anaesthetised guinea pig; 10 µg/kg acetylcholine 5 min after test substance; contraction of exposed urinary bladder
Description: (§2) Am narkotisierten Meerschweinchen wurden 5 Minuten nach Gabe der Prüfsubstanz 10 µg/kg Acetylcholin intravenös als auch gleichzeitig intraarteriell injiziert. Dabei wurde die Herzfrequenz durch extrakorporale Ableitung des EKG, der Ausatemwiderstand nach Konzett-Rößler und die Kontraktion der freigelegten Harnblase direkt registriert. Für die Hemmung der Acetylcholinwirkung an den untersuchten Organen wurden Dosis-Wirkungskurven aufgenommen und daraus -log ED₅₀-Werte bestimmt. Ergebnisse siehe Tabelle III.

[3] = system: vagale Bradykardie (M₂); assay: M1/M2 selectivity in the rat: inhibition of bradycardia evoked by vagus stimulation; type: in vivo, THOM-Ratten; conditions: i.v., dose reducing vagal bradycardia (M₂) by 50%, 5 min after injection
Description: (§3) Die angewandte Methode wurde von Hammer und Giachetti (Life Sciences 31, 2991-2998 (1982)) beschrieben. 5 Minuten nach intravenöser Injektion steigender Dosen der Substanz wurden entweder der rechte Vagus elektrisch stimuliert (Frequenz: 25 Hz; Pulsbreite: 2ms; Reizdauer: 30s; Voltzahl: supramaximal) oder 0,3 mg/kg McN-A-343 in männliche THOM-Ratten intravenös injiziert. Die durch Vagusstimulation hervorgerufene Bradykardie und der durch McN-A-343 verursachte Blutdruckanstieg wurden bestimmt. Die Dosis der Substanzen, die entweder die vagale Bradykardie (M₂) oder den Blutdruckanstieg (M₁) um 50% verminderte, wurde graphisch ermittelt. Ergebnisse siehe Tabelle II.

[4] = system: Speichelsekretion; assay: Inhibition of pilocarpine-induced salivation in the rat; type: in vivo, THOM-Ratten; conditions: urethane-anaesthetised rat, i.v.; dose reducing saliva volume by 50%; 2 mg/kg pilocarpine s.c.
Description: Nach Lavy und Mulder (Arch. int. Pharmacodyn. 178, 437-445, (1969)) erhielten mit 1,2 g/kg Urethan narkotisierte männliche THOM-Ratten steigende Dosen der Substanz i.v.. Die Speichelsekretion wurde durch s.c. Gabe von 2 mg/kg Pilocarpin ausgelöst. Der Speichel wurde mit Fließpapier aufgesaugt, die von ihm eingenommene Fläche alle 5 Minuten planimetrisch bestimmt. Die Dosis der Substanz, die das Speichelvolumen um 50% verminderte, wurde graphisch ermittelt.

[5] = system: Bronchien; assay: Inhibition of the acetylcholine effect on bronchi of the guinea pig; type: in vivo, Meerschweinchen; conditions: anaesthetised guinea pig; 10 µg/kg acetylcholine 5 min after test substance; expiratory resistance (Konzett-Rößler)
Description: as §2, with “bestimmt.” for “bestimmt. Ergebnisse siehe Tabelle III.”

[6] = target: T1, muscarinischen Rezeptoren (Gesamtherz) (Rattus norvegicus, UniProt P10980); assay: Receptor binding test, ³H-NMS displacement, whole heart homogenate; design: species or system Sprague-Dawley-Ratten; conditions: 0,3 n molar ³H-NMS, 30°C, 45 min, read-out: Rezeptor-Bindungs-Tests IC₅₀ Herz
T1 construct: Das Gesamtherz wurde mit einer Schere zerkleinert; from tissue; host or cells: rat whole heart homogenate
T1 sequence (P10980 1-466): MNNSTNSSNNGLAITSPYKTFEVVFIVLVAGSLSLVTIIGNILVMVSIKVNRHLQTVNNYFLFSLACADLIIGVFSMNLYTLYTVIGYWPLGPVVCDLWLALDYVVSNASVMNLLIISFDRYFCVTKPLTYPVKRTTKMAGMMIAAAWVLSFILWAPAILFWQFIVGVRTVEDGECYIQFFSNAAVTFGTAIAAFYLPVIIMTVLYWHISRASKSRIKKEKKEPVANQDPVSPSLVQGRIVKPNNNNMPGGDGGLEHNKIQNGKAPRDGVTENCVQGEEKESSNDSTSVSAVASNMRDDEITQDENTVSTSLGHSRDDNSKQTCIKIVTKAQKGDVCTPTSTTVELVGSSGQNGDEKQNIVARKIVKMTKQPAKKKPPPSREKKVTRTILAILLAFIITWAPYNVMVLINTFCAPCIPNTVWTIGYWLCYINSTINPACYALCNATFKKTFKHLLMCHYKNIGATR
Description: as §1

[7] = system: Blutdruckanstieg (M₁); assay: M1/M2 selectivity in the rat: inhibition of blood pressure rise caused by McN-A-343; type: in vivo, THOM-Ratten; conditions: i.v., dose reducing blood pressure rise (M₁) caused by 0,3 mg/kg McN-A-343 by 50%
Description: as §3

[8] = system: Herzfrequenz; assay: Inhibition of the acetylcholine effect on heart rate of the guinea pig; type: in vivo, Meerschweinchen; conditions: anaesthetised guinea pig; 10 µg/kg acetylcholine 5 min after test substance; heart rate (ECG)
Description: as §2

Structure (SMILES)	IC50 [1]	-log ED₅₀ Blase [2]	-log ED₅₀ Herz [3]	-log ED₅₀ Salivation [4]	-log ED₅₀ Bronchien [5]	IC50 [6]	-log ED₅₀ Blutdruck [7]	-log ED₅₀ Herz [8]
O=C1Nc2cccnc2N(C(=O)CCCCCN2CCCCC2)c2ccccc21 [A, 5,11-Dihydro-11-[6-(1-piperidinyl)-1-oxohexyl]-6H-pyrido[2,3-b][1,4]benzodiazepin-6-on]	60 nM	6.20 Molkg⁻¹	7.75 Mkg⁻¹	6.65 Mkg⁻¹	7.49 Molkg⁻¹	10 nM	6.42 Mkg⁻¹	6.88 Molkg⁻¹
CCN(CC)CC1CCCCN1CC(=O)N1c2ccccc2C(=O)Nc2cccnc21 (stereo not drawn) [B, 11-[[2-[(Diethylamino)methyl]-1-piperidinyl]acetyl]-5,11-dihydro-6H-pyrido[2,3-b][1,4]benzodiazepin-6-on]	1200 nM	4.73 Molkg⁻¹	6.42 Mkg⁻¹	5.00 Mkg⁻¹	5.58 Molkg⁻¹	140 nM	5.63 Mkg⁻¹	5.84 Molkg⁻¹
CN1CCN(CC(=O)N2c3ccccc3C(=O)Nc3cccnc32)CC1 [C, 5,11-Dihydro-11-[(4-methyl-1-piperazinyl)acetyl]-6H-pyrido[2,3-b][1,4]benzodiazepin-6-on]		5.36 Molkg⁻¹		6.22 Mkg⁻¹	6.57 Molkg⁻¹			5.85 Molkg⁻¹
CN1[C@@H]2CC[C@H]1C[C@@H](OC(=O)C(CO)c1ccccc1)C2 (stereo partly drawn) [D, Atropin]		7.03 Molkg⁻¹	7.94 Mkg⁻¹				7.34 Mkg⁻¹	7.70 Molkg⁻¹
